# Test results reported in US10787452B2 (Vertex Pharmaceuticals Incorporated, priority 2012, dated 2020).
# Tested on: HCT116 colorectal cancer cells
# Experiment: Cisplatin sensitization assay (96 h cell viability MTS);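 note: compound concentration needed to lower the Cisplatin-alone IC50 by a set fold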
# Assay type: cell-based
# Details: 96 h MTS, compound plus Cisplatin
# Procedure, shortened: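 Test compound and cisplatin were added together as a full matrix of 2-fold serial dilutions, each from a top final concentration of 10 μM. Cells were incubated 96 h at 37° C in 5% CO2, then viability was read by MTS after a further 1 h incubation.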
row,Compound,Cisplatin Sensitization Assay
1,"CN1CCN(C(=O)C2CCCN(c3c(F)cncc3NC(=O)c3c(N)nn4cc(F)cnc34)C2)CC1 (stereo not shown) [I-N-289, 2-amino-6-fluoro-N-(5-fluoro-4-(3-(4-methylpiperazine-1-carbonyl)piperidin-1-yl)pyridin-3-yl)pyrazolo[1,5-a]pyrimidine-3-carboxamide]",++ (Compounds with a Cisplatin sensitization value >0.02 μM but <0.2 μM are marked with “++.”)
2,"CN(C)CCOc1cc(C(F)(F)F)ncc1NC(=O)c1c(N)nn2cc(Cl)cnc12 [I-O-71, 2-amino-6-chloro-N-(4-(2-(dimethylamino)ethoxy)-6-(trifluoromethyl)pyridin-3-yl)pyrazolo[1,5-a]pyrimidine-3-carboxamide]",+ (Compounds with a Cisplatin sensitization value >0.2 μM but <5 μM are marked with “+.”)
3,"Nc1nn2cc(F)cnc2c1C(=O)Nc1cnccc1N1CC(=O)N2CCCC2C1 (stereo not shown) [I-N-222, 2-amino-6-fluoro-N-(4-(4-oxohexahydropyrrolo[1,2-a]pyrazin-2(1H)-yl)pyridin-3-yl)pyrazolo[1,5-a]pyrimidine-3-carboxamide]",++ (Compounds with a Cisplatin sensitization value >0.02 μM but <0.2 μM are marked with “++.”)
4,"CN1CCC[C@H]1C(=O)N1CCN(c2c(F)cncc2NC(=O)c2c(N)nn3cc(F)cnc23)CC1 [I-N-157, (S)-2-amino-6-fluoro-N-(5-fluoro-4-(4-(1-methylpyrrolidine-2-carbonyl)piperazin-1-yl)pyridin-3-yl)pyrazolo[1,5-a]pyrimidine-3-carboxamide]",++ (Compounds with a Cisplatin sensitization value >0.02 μM but <0.2 μM are marked with “++.”)
5,"CN1CCN(C2CCN(c3ccncc3NC(=O)c3c(N)nn4cc(Cl)cnc34)CC2)CC1 [I-N-97, 2-amino-6-chloro-N-(4-(4-(4-methylpiperazin-1-yl)piperidin-1-yl)pyridin-3-yl)pyrazolo[1,5-a]pyrimidine-3-carboxamide]",+++ (Compounds with a Cisplatin sensitization value of <0.02 μM are marked with “+++.”)
6,"Cn1ccnc1-c1ccncc1NC(=O)c1c(N)nn2cc(F)cnc12 [I-C-55, 2-amino-6-fluoro-N-(4-(1-methyl-1H-imidazol-2-yl)pyridin-3-yl)pyrazolo[1,5-a]pyrimidine-3-carboxamide]",+ (Compounds with a Cisplatin sensitization value >0.2 μM but <5 μM are marked with “+.”)
7,"Nc1nn2cc(F)cnc2c1C(=O)Nc1cnccc1OC1CC[S+]([O-])CC1 (stereo not shown) [I-O-44, 2-amino-6-fluoro-N-(4-((1-oxidotetrahydro-2H-thiopyran-4-yl)oxy)pyridin-3-yl)pyrazolo[1,5-a]pyrimidine-3-carboxamide]",++ (Compounds with a Cisplatin sensitization value >0.02 μM but <0.2 μM are marked with “++.”)
8,"CN1CCC(Oc2ccncc2NC(=O)c2c(N)nn3cc(Cl)cnc23)CC1 [I-O-64, 2-amino-6-chloro-N-(4-((1-methylpiperidin-4-yl)oxy)pyridin-3-yl)pyrazolo[1,5-a]pyrimidine-3-carboxamide]",+++ (Compounds with a Cisplatin sensitization value of <0.02 μM are marked with “+++.”)
9,"Cn1ccc2cncc(NC(=O)c3c(N)nn4cc(F)cnc34)c21 [I-N-259, 2-amino-6-fluoro-N-(1-methyl-1H-pyrrolo[3,2-c]pyridin-7-yl)pyrazolo[1,5-a]pyrimidine-3-carboxamide]",+ (Compounds with a Cisplatin sensitization value >0.2 μM but <5 μM are marked with “+.”)
10,"Cn1ccc(-c2ccncc2NC(=O)c2c(N)nn3cc(F)cnc23)n1 [I-C-68, 2-amino-6-fluoro-N-(4-(1-methyl-1H-pyrazol-3-yl)pyridin-3-yl)pyrazolo[1,5-a]pyrimidine-3-carboxamide]",+ (Compounds with a Cisplatin sensitization value >0.2 μM but <5 μM are marked with “+.”)
11,"COC1(C)CN(C(=O)C2CCN(c3c(F)cncc3NC(=O)c3c(N)nn4cc(F)cnc34)CC2)C1 [I-G-75, 2-amino-6-fluoro-N-(5-fluoro-4-(4-(3-methoxy-3-methylazetidine-1-carbonyl)piperidin-1-yl)pyridin-3-yl)pyrazolo[1,5-a]pyrimidine-3-carboxamide]",+++ (Compounds with a Cisplatin sensitization value of <0.02 μM are marked with “+++.”)
12,"CN1CCN(C(=O)C2CCN(c3c(F)cncc3NC(=O)c3c(N)nn4cc(F)cnc34)CC2)CC1(C)C [I-G-15, 2-amino-6-fluoro-N-(5-fluoro-4-(4-(3,3,4-trimethylpiperazine-1-carbonyl)piperidin-1-yl)pyridin-3-yl)pyrazolo[1,5-a]pyrimidine-3-carboxamide]",+++ (Compounds with a Cisplatin sensitization value of <0.02 μM are marked with “+++.”)
13,"CN1CCN(C(=O)c2ccc(-c3ccncc3NC(=O)c3c(N)nn4cc(F)cnc34)cn2)CC1 [I-C-19, 2-amino-6-fluoro-N-(6-(4-methylpiperazine-1-carbonyl)-[3,4′-bipyridin]-3′-yl)pyrazolo[1,5-a]pyrimidine-3-carboxamide]",++ (Compounds with a Cisplatin sensitization value >0.02 μM but <0.2 μM are marked with “++.”)
14,"COC(=O)C1CCN(c2ccncc2NC(=O)c2c(N)nn3cc(Cl)cnc23)CC1 [I-N-74, methyl-1-(3-(2-amino-6-chloropyrazolo[1,5-a]pyrimidine-3-carboxamido)pyridin-4-yl)piperidine-4-carboxylate]",+++ (Compounds with a Cisplatin sensitization value of <0.02 μM are marked with “+++.”)
15,"Nc1nn2cc(F)cnc2c1C(=O)Nc1cncc(F)c1N1CCN(C(=O)C2CC3CCCCN3C2)CC1 (stereo not shown) [I-N-203, 2-amino-6-fluoro-N-(5-fluoro-4-(4-(octahydroindolizine-2-carbonyl)piperazin-1-yl)pyridin-3-yl)pyrazolo[1,5-a]pyrimidine-3-carboxamide]",+++ (Compounds with a Cisplatin sensitization value of <0.02 μM are marked with “+++.”)
16,"CN1CCN(C(=O)C2CCN(c3c(Cl)cncc3NC(=O)c3c(N)nn4cc(F)cnc34)CC2)CC1 [I-G-3, 2-amino-N-(5-chloro-4-(4-(4-methylpiperazine-1-carbonyl)piperidin-1-yl)pyridin-3-yl)-6-fluoropyrazolo[1,5-a]pyrimidine-3-carboxamide]",+++ (Compounds with a Cisplatin sensitization value of <0.02 μM are marked with “+++.”)
17,"Nc1nn2cc(F)cnc2c1C(=O)Nc1cnccc1N1CCC(S(=O)(=O)N2CCOCC2)CC1 [I-N-170, 2-amino-6-fluoro-N-(4-(4-(morpholinosulfonyl)piperidin-1-yl)pyridin-3-yl)pyrazolo[1,5-a]pyrimidine-3-carboxamide]",+++ (Compounds with a Cisplatin sensitization value of <0.02 μM are marked with “+++.”)
18,"COCC1CN(C(=O)C2CCN(c3c(F)cncc3NC(=O)c3c(N)nn4cc(F)cnc34)CC2)C1 [I-G-98, 2-amino-6-fluoro-N-(5-fluoro-4-(4-(3-(methoxymethyl)azetidine-1-carbonyl)piperidin-1-yl)pyridin-3-yl)pyrazolo[1,5-a]pyrimidine-3-carboxamide]",+++ (Compounds with a Cisplatin sensitization value of <0.02 μM are marked with “+++.”)
19,"CN1CCN(C(=O)C2CCN(c3c(F)cncc3NC(=O)c3c(N)nn4cc(F)cnc34)C2)CC1 (stereo not shown) [I-N-191, 2-amino-6-fluoro-N-(5-fluoro-4-(3-(4-methylpiperazine-1-carbonyl)pyrrolidin-1-yl)pyridin-3-yl)pyrazolo[1,5-a]pyrimidine-3-carboxamide]",+ (Compounds with a Cisplatin sensitization value >0.2 μM but <5 μM are marked with “+.”)
